Measured values reported in paper PMC12154555, “Beyond natural flavonoids: exploring bioisosterism in design and synthesis of influenza endonuclease inhibitors” (RSC Medicinal Chemistry, 2025).
Like-named read-outs stand apart in the source and are kept apart here.

Columns and labels:
[1] = test system: influenza A (A/California/07/2009 (H1N1)); assay: Cytopathic effect reduction assay in MDCK cells; assay type: cell-based; conditions: for EC50: read-out: EC50 antiviral testing MDCK
[2] = Cytotoxicity assay (XTT), A549 cells; assay type: cell-based, human; conditions: human
Method: (§1) HEK 293T, A549 and MDCK cells were seeded at 3 × 10^3 cells per well in 100 μL DMEM complete medium. The following day, compounds were added to the corresponding wells, and the cells were incubated for 48 hours at 37 °C in 5% CO2. After incubation, cell viability was analyzed by XTT colorimetric assay. Then, 50 μL of a 50 : 1 mixture of XTT labelling reagent (1 mg mL^−1) and PMS electron-coupling reagent (0.383 mg mL^−1) were added to the wells and incubated for 4 hours at 37 °C in 5% CO2. The formation of orange formazan dye was measured on a Tecan Spark plate reader (Tecan Life Sciences, USA). The experiments were performed in biological triplicates, and the resulting data were analyzed using GraphPad Prism 10.0 software (GraphPad Software, San Diego, CA, USA).

[3] = Cytotoxicity assay (XTT), HEK 293T cells; assay type: cell-based; conditions: human
Method: as §1, with “CA, USA). […]” for “CA, USA).”
incubating serial dilutions of each tested compound and control compounds with the selected cell cultures. HEK 293T cells were seeded at 3x10^3 cells per well in 100 μl of DMEM complete medium. The following day the tested compounds were added to the corresponding well and the cells were incubated for 48 hours at 37 °C in 5% CO 2. After incubation, cell viability was analysed by XTT colorimetric assay. 50 μl of 50:1 mixture of XTT labelling reagent (1 mg/mL) and PMS electron-coupling reagent (0.383 mg/mL) were added to the wells and incubated for 4 hours at 37 °C in 5% CO2. The formation of orange formazan dye was measured on a Tecan Spark plate reader (Tecan Life Sciences, USA). The experiments were performed in biological triplicates, and the resulting data were analyzed using GraphPad Prism 10.0 software (GraphPad Software, San Diego, […]

[4] = Cytotoxicity assay (XTT), MDCK cells; assay type: cell-based, canine; conditions: dog
Method: as §1

[5] = test system: influenza A (A/California/07/2009 (H1N1)); assay: Cytopathic effect reduction assay in A549 cells; assay type: cell-based; conditions: for EC50: read-out: EC50 antiviral testing A549
A549 cells = assay: Cytotoxicity assay (XTT), A549 cells; assay type: cell-based, human
Method: as §1

MDCK cells = assay: Cytotoxicity assay (XTT), MDCK cells; assay type: cell-based, canine
Method: as §1

influenza A polymerase [6] = molecular target: T1, influenza A polymerase (Influenza A virus, UniProt P15659); assay: cell-based; design: species or system influenza A/WSN/33 H1N1; conditions: read-out: EC50 minireplicon A549
influenza A polymerase [7] = molecular target: T1, influenza A polymerase; assay: cell-based; assay type: cell-based, influenza A/WSN/33 H1N1; conditions: for EC50: read-out: EC50 minireplicon HEK 293T
[8] = Influenza A virus, H1N1, MDCK, 72 h
[9] = Influenza A virus, H1N1, A549, 96 h

Row | SMILES | EC50 [1, 8] | CC50 at 48 h [2] | CC50 at 48 h [3] | CC50 at 48 h [4] | EC50 [5, 9] | EC50 antiviral testing MDCK [1] | EC50 [1] | CC50 (A549 cells) | CC50 cytotoxicity A549 (A549 cells) | CC50 (MDCK cells) | CC50 cytotoxicity MDCK (MDCK cells) | EC50 antiviral testing A549 [5] | EC50 [5] | EC50 (influenza A polymerase [6]) | EC50 (influenza A polymerase [7]) | CC50 at 48 h ([2]; A549 cells, 48 hours, XTT, read-out: CC50 cytotoxicity A549) | CC50 at 48 h ([3]; HEK 293T cells, 48 hours, XTT, read-out: CC50 cytotoxicity HEK 293T) | CC50 at 48 h ([4]; MDCK cells, 48 hours, XTT, read-out: CC50 cytotoxicity MDCK) | EC50 minireplicon HEK 293T (influenza A polymerase [7])
1 | COC(=O)OCOc1c2n(ccc1=O)N([C@@H]1c3ccccc3SCc3c1ccc(F)c3F)[C@@H]1COCCN1C2=O [BMX, baloxavir marboxil, reference compound] | 0.03 ± 0.008 µM | > 50 µM | > 50 µM | > 50 µM | 1.8 ± 0.4 µM |  |  |  |  |  |  |  |  |  |  |  |  |  | 
2 | O=C1c2c(O)c(=O)ccn2N([C@@H]2c3ccccc3SCc3c2ccc(F)c3F)[C@@H]2COCCN12 [BXA, baloxavir acid, reference compound] |  |  |  |  |  | […] | […] | 14 ± 3 µM | moderate cytotoxicity | 5 ± 1 µM | moderate cytotoxicity | […] | […] |  |  |  |  |  | 
3 | Oc1cc(O)c2c(O)cc(-c3ccc(O)c(O)c3)cc2c1 [Compound 24, 6-(3,4-Dihydroxyphenyl)naphthalene-1,3,8-triol] | > 100 µM | > 50 µM | > 50 µM | > 50 µM | 12 ± 1 µM |  |  |  |  |  |  |  |  | 0.8 ± 0.2 µM | 1.1 ± 0.1 µM |  |  |  | 
4 | O=c1cc(-c2cc(O)c3c(O)cc(O)cc3c2)[nH]cc1O [Compound 33, 5-Hydroxy-2-(4,5,7-trihydroxynaphthalen-2-yl)pyridin-4(1H)-one] | 41 ± 13 µM | > 50 µM | > 50 µM | > 50 µM | 2.4 ± 0.4 µM |  |  |  |  |  |  |  |  | 2.8 ± 0.6 µM | 2.1 ± 0.2 µM |  |  |  | 
5 | O=c1[nH]c(-c2cc(O)c3c(O)cc(O)cc3c2)cnc1O [Compound 34, 3-Hydroxy-6-(4,5,7-trihydroxynaphthalen-2-yl)pyrazin-2(1H)-one] | > 100 µM | > 50 µM | > 50 µM | > 50 µM | > 100 µM |  |  |  |  |  |  |  |  | 1.7 ± 0.4 µM | 1.8 ± 0.1 µM |  |  |  | 
6 | O=c1[nH]c(-c2cc(O)c3c(O)cc(O)cc3c2)ncc1O [Compound 36, 5-Hydroxy-2-(4,5,7-trihydroxynaphthalen-2-yl)pyrimidin-4(3H)-one] | > 100 µM | > 50 µM | > 50 µM | > 50 µM | 10 ± 1 µM |  |  |  |  |  |  |  |  | 1.8 ± 0.5 µM | 1.4 ± 0.2 µM |  |  |  | 
7 | O=c1cc(-c2ccc(O)c(O)c2)oc2cc(O)cc(O)c12 [Luteolin, luteolin, reference compound] | > 100 µM |  |  |  | 20 ± 2 µM |  |  |  |  |  |  |  |  | 9.2 ± 4.1 µM | > 100 µM | > 50 µM | > 50 µM | > 50 µM | did not show any inhibition
